Test results reported in PMC11352099 (RSC Medicinal Chemistry, 2024).
Several values for one entry are separate records, joined by “and”; a condition that tells them apart may be missing. Equal entries are not always repeated. Where two headings read alike, the source gives them in different places.

Target: SARS-CoV-2 nsp14 MTase (Severe acute respiratory syndrome coronavirus 2, UniProt P0DTD1)
Assay: biochemical
Type: biochemical
Conditions: for Hill slope: Table S1, dose-response curve, variable slope model
[1] = Table 1 and text, N.I., no inhibition, read-out: IC50
[2] = Table 1 and text, N.I., no inhibition
[3] = Table S1, read-out: IC50 (inhibitory activity)

COC(=O)c1ccc(NC(=O)[C@H]2O[C@@H](n3cnc4c(N)ncnc43)[C@H](O)[C@@H]2O)cc1 [12a]
IC50 [1]: > 25 µM

NC(=O)c1ccc(NC(=O)[C@H]2O[C@@H](n3cnc4c(N)ncnc43)[C@H](O)[C@@H]2O)cc1 [12b]
IC50 [2]: N.I.

COc1cccc(NC(=O)[C@H]2O[C@@H](n3cnc4c(N)ncnc43)[C@H](O)[C@@H]2O)c1 [12c]
IC50 [2]: N.I.

COc1ccc(NC(=O)[C@H]2O[C@@H](n3cnc4c(N)ncnc43)[C@H](O)[C@@H]2O)cc1O [12d]
IC50 [1]: > 25 µM

Cc1ccc(NC(=O)[C@H]2O[C@@H](n3cnc4c(N)ncnc43)[C@H](O)[C@@H]2O)cc1O [12e]
IC50 [2]: N.I.

COC(=O)c1cc(NC(=O)[C@H]2O[C@@H](n3cnc4c(N)ncnc43)[C@H](O)[C@@H]2O)ccc1F [12f]
IC50 [2]: N.I.

Nc1ncnc2c1ncn2[C@@H]1O[C@H](C(=O)Nc2ccc(-c3ccoc3)cc2)[C@@H](O)[C@H]1O [12g, (2S,3S,4R,5R)-5-(6-Amino-9H-purin-9-yl)-N-(4-(furan-3-yl)phenyl)-3,4-dihydroxytetrahydrofuran-2-carboxamide]
IC50 [2]: N.I.

Nc1ncnc2c1ncn2[C@@H]1O[C@H](C(=O)Nc2ccc(-c3ccsc3)cc2)[C@@H](O)[C@H]1O [12h]
IC50 [2]: N.I.

Nc1ncnc2c1ncn2[C@@H]1O[C@H](C(=O)Nc2ccc(-c3cn[nH]c3)cc2)[C@@H](O)[C@H]1O [12i]
IC50 [2]: N.I.

Cc1noc(C)c1-c1ccc(NC(=O)[C@H]2O[C@@H](n3cnc4c(N)ncnc43)[C@H](O)[C@@H]2O)cc1 [12j]
IC50 [2]: N.I.

Nc1ncnc2c1ncn2[C@@H]1O[C@H](C(=O)Nc2ccc3c(c2)OCCO3)[C@@H](O)[C@H]1O [12k]
IC50 [1]: 1.8 µM and 1.81 µM
Hill slope: -1.01
IC50 [3]: 1.81 µM

Nc1ncnc2c1ncn2[C@@H]1O[C@H](C(=O)Nc2ccc3c(c2)NC(=O)CC3)[C@@H](O)[C@H]1O [12o]
IC50 [1]: 6.55 ± 1.44 µM
Hill slope: -0.91
IC50 [3]: 6.55 µM

Nc1ncnc2c1ncn2[C@@H]1O[C@H](C(=O)Nc2ccc3cccnc3c2)[C@@H](O)[C@H]1O [12p]
IC50 [1]: 4.81 ± 2.54 µM
Hill slope: -1.45
IC50 [3]: 4.81 µM

COC(=O)c1ccc(C(=O)NC[C@H]2O[C@@H](n3cnc4c(N)ncnc43)[C@H](O)[C@@H]2O)cc1 [21a]
inhibitory activity against nsp14 (in words): significant decrease or complete loss of the inhibitory activity
IC50 [2]: N.I.

Nc1ncnc2c1ncn2[C@@H]1O[C@H](CNC(=O)c2ccc3c(c2)OCCO3)[C@@H](O)[C@H]1O [21k]
inhibitory activity against nsp14 (in words): significant decrease or complete loss of the inhibitory activity
IC50 [2]: N.I.

Nc1ncnc2c1ncn2[C@@H]1O[C@H](CNS(=O)(=O)c2ccc3c(c2)OCCO3)[C@@H](O)[C@H]1O [22k]
inhibitory activity against nsp14 (in words): significant decrease or complete loss of the inhibitory activity
IC50 [1]: 15.3 ± 2.55 µM
Hill slope: -1.55

Cc1cc(=O)oc2cc(SC[C@H]3O[C@@H](n4cnc5c(N)ncnc54)[C@H](O)[C@@H]3O)ccc12 [compound 24]
inhibitory activity against nsp14 (in words): significant decrease or complete loss of the inhibitory activity
IC50 [1]: 3.67 ± 0.4 µM
Hill slope: -1.04
IC50 [3]: 3.67 µM

Cc1cc(=O)oc2cc(S(=O)(=O)C[C@H]3O[C@@H](n4cnc5c(N)ncnc54)[C@H](O)[C@@H]3O)ccc12 [compound 25]
inhibitory activity against nsp14 (in words): significant decrease or complete loss of the inhibitory activity
IC50 [1]: > 25 µM
